# Assay results published in ChEMBL document CHEMBL1153982, “Synthesis and evaluation of 2,7-diamino-thiazolo[4,5-d] pyrimidine analogues as anti-tumor epidermal growth factor receptor (EGFR) tyrosine kinase inhibitors” (Bioorg Med Chem Lett, 2009).
# Legend:
# [1] = Metabolic stability to human liver microsomes assessed as half life; format: ADME, Microsome
# [2] = Solubility in aqueous buffer at pH 2.0; format: physicochemical
# [3] = Solubility in aqueous buffer at pH 7.4; format: physicochemical
# [4] = Oral bioavailability in rat at 10 mg/kg; format: ADME, organism-based; conditions: in vivo
# [5] = Cmax in rat at 10 mg/kg; format: ADME, organism-based; set-up: dose 10 mg/kg; conditions: in vivo
# [6] = AUC in rat at 10 mg/kg; format: ADME, organism-based; set-up: dose 10 mg/kg; conditions: plasma
# [7] = Half life in rat at 10 mg/kg; format: ADME, organism-based; set-up: dose 10 mg/kg; conditions: in vivo
# [8] = biological target: Epidermal growth factor receptor (Homo sapiens, UniProt P00533)
# [9] = biological target: Cyclin-dependent kinase 1 (Homo sapiens, UniProt P06493); experiment: Inhibition of CDK1
# [10] = Oral bioavailability in mouse at 10 mg/kg; format: ADME, organism-based; conditions: in vivo, read-out: ED15
# [11] = Cmax in mouse at 10 mg/kg; format: ADME, organism-based; set-up: dose 10 mg/kg; conditions: in vivo
# [12] = AUC in mouse at 10 mg/kg; format: ADME, organism-based; set-up: dose 10 mg/kg; conditions: plasma
# [13] = Half life in mouse at 10 mg/kg; format: ADME, organism-based; set-up: dose 10 mg/kg; conditions: in vivo
# Epidermal growth factor receptor, sequence (P00533 whole entry): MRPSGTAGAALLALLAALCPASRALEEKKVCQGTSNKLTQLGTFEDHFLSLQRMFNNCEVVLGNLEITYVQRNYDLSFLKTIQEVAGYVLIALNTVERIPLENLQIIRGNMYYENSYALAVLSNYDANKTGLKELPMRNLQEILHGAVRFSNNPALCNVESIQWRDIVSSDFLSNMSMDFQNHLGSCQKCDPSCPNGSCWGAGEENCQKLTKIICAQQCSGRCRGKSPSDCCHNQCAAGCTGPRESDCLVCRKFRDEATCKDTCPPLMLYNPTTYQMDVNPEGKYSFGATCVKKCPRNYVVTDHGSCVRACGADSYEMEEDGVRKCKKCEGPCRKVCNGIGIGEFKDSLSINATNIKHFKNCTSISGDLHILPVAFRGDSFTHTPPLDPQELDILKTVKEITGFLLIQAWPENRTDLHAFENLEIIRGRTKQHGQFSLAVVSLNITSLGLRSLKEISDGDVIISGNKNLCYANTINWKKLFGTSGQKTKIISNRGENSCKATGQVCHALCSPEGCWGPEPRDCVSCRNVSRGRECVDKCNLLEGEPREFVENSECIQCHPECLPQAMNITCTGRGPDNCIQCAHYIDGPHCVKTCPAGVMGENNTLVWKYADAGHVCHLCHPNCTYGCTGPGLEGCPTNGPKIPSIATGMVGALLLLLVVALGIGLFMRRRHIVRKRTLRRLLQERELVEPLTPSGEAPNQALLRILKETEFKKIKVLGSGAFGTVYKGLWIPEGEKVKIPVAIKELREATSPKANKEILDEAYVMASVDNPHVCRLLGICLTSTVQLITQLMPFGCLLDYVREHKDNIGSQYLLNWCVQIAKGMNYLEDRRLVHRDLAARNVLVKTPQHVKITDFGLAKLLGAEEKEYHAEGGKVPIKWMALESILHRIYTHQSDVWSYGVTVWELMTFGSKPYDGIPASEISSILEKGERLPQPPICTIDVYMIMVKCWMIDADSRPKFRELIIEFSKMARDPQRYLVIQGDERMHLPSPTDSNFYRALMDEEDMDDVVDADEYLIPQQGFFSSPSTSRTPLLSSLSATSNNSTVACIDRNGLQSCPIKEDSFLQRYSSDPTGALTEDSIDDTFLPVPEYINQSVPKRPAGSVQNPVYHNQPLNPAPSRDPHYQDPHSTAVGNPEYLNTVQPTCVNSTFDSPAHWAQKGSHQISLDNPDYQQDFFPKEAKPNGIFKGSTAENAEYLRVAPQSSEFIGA
# Cyclin-dependent kinase 1, sequence (P06493 whole entry): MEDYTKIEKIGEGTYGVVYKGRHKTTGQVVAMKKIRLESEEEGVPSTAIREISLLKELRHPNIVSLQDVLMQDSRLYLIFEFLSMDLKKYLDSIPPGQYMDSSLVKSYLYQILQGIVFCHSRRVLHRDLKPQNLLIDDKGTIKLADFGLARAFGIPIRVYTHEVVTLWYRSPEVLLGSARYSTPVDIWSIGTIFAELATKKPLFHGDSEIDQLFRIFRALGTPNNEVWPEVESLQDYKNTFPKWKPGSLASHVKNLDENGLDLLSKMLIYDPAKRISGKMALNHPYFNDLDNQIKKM
Compound,half-life [1],solubility [2],solubility [3],bioavailability [4],Cmax [5],AUC [6],IC50 [8],further results
Fc1ccc(Nc2ncnc3nc(Nc4ccc(CCN5CCOCC5)cc4)sc23)cc1Cl,0.183 h,290 µg/mL,< 0.2 µg/mL,13%,289 ng/mL,1170 ng·h/mL,15 nM,half-life [7]: 1.8 h
N#Cc1cnc2nc(Nc3ccc(CN4CCOCC4)cc3)sc2c1Nc1ccc(F)c(Cl)c1,0.217 h,37 µg/mL,< 0.2 µg/mL,10.8%,28 ng/mL,184 ng·h/mL,,half-life [7]: 4.9 h
Fc1ccc(Nc2ncnc3nc(Nc4ccc(CN5CCCC5)cc4)sc23)cc1Cl,,,,,,,4 nM,
NS(=O)(=O)c1ccc(Nc2nc3ncnc(Nc4c(F)cccc4F)c3s2)cc1,,,,,,,,IC50 [9]: 19800 nM
COCCN(CCOC)S(=O)(=O)c1ccc(Nc2nc3ncnc(Nc4ccc(F)c(Cl)c4)c3s2)cc1,,,,,,,25 nM,
OC[C@@H]1CCCN1Cc1ccc(Nc2nc3ncnc(Nc4ccc(F)c(Cl)c4)c3s2)cc1,> 1.67 h,360 µg/mL,< 0.2 µg/mL,0.3%,2.4 ng/mL,24 ng·h/mL,,
NS(=O)(=O)c1ccc(Nc2nc3ncnc(Nc4ccc(N5CCOCC5)c(Cl)c4)c3s2)cc1,,,,,,,3300 nM,
CCc1nccn1Cc1ccc(Nc2nc3ncnc(Nc4ccc(F)c(Cl)c4)c3s2)cc1,0.05 h,300 µg/mL,< 0.2 µg/mL,,,,6 nM,
Fc1ccc(Nc2ncnc3nc(Nc4ccc(CN5CCOCC5)cc4)sc23)cc1Cl,0.317 h,> 1000 µg/mL,1 µg/mL,20%,527 ng/mL,2150 ng·h/mL,12 nM,half-life [7]: 1.88 h; bioavailability [10]: 67%; Cmax [11]: 3850 ng/mL; AUC [12]: 10800 ng·h/mL; half-life [13]: 2.9 h
CN1CCN(Cc2ccc(Nc3nc4ncnc(Nc5ccc(OCc6cccc(F)c6)c(Cl)c5)c4s3)cc2)CC1,,,,,,,9 nM,
CN(C)Cc1ccc(Nc2nc3ncnc(Nc4ccc(F)c(Cl)c4)c3s2)cc1,> 1.67 h,390 µg/mL,27 µg/mL,9%,54 ng/mL,322 ng·h/mL,,half-life [7]: 3.2 h
Fc1ccc(Nc2ncnc3nc(Nc4ccc(CN5CCCCC5)cc4)sc23)cc1Cl,,,,,,,10 nM,
NS(=O)(=O)c1ccc(Nc2nc3ncnc(Nc4cccc(Br)c4)c3s2)cc1,,,,,,,10 nM,
NS(=O)(=O)c1ccc(Nc2nc3ncnc(Nc4cccc(Cl)c4)c3s2)cc1,> 1.67 h,< 0.2 µg/mL,< 0.2 µg/mL,0.8%,39 ng/mL,224 ng·h/mL,7 nM,
C#Cc1cccc(Nc2ncnc3nc(Nc4ccc(CN5CCOCC5)cc4)sc23)c1,,,,,,,43 nM,
